Here are results for 24 molecules from US20240122180A1, “FUNGICIDAL HALOMETHYL KETONES AND HYDRATES AND THEIR MIXTURES” (FMC Corporation, priority 2020, published 2024).

Holding throughout (assay type): in vivo
For assay [1], the system named is Phakopsora pachyrhizi (the causal agent of Asian soybean rust). Kind of assay: Test F: Compound 32 or 64 alone and in mixtures on soybean seedlings, observed (Obsd) and Colby expected (Exp) disease control. Conditions: for pest or weed control at 46.795 ppm / pest or weed control at 89.631 ppm / pest or weed control at 138.129 ppm / pest or weed control at 222.081 ppm / pest or weed control at 544.265 ppm / pest or weed control at 1124.02 ppm / pest or weed control at 78.393 ppm / pest or weed control at 161.74 ppm / pest or weed control at 242.823 ppm / pest or weed control at 458.587 ppm / pest or weed control at 29.673 ppm / pest or weed control at 86.003 ppm / pest or weed control at 10.165 ppm / pest or weed control at 16.339 ppm: Phakopsora pachyrhizi; for pest or weed control at 46.795 ppm: epoxiconazole 46.795 ppm alone; for pest or weed control at 89.631 ppm: epoxiconazole 89.631 ppm alone; for pest or weed control at 138.129 ppm: chlorothalonil 138.129 ppm alone; for pest or weed control at 222.081 ppm: chlorothalonil 222.081 ppm alone; for pest or weed control at 544.265 ppm: flutriafol 544.265 ppm alone; for pest or weed control at 1124.02 ppm: flutriafol 1124.021 ppm alone; for pest or weed control at 78.393 ppm: fenpropidin 78.393 ppm alone; for pest or weed control at 161.74 ppm: fenpropidin 161.740 ppm alone; for pest or weed control at 242.823 ppm: fenpropimorph 242.823 ppm alone; for pest or weed control at 458.587 ppm: fenpropimorph 458.587 ppm alone; for pest or weed control at 29.673 ppm: metominostrobin 29.673 ppm alone; for pest or weed control at 86.003 ppm: metominostrobin 86.003 ppm alone; for pest or weed control at 10.165 ppm: prothioconazole 10.165 ppm alone; for pest or weed control at 16.339 ppm: prothioconazole 16.339 ppm alone. An excerpt:
The general protocol for preparing test compositions for Test F was as follows: Compound 32, Compound 64, azoxystrobin, benzovindiflupyr, bixafen, chlorothalonil, cyproconazole, epoxiconazole, fenpropidin, fenpropimorph, fluindapyr, flutriafol, fluxapyroxad, metominostrobin, picoxystrobin, prothioconazole, pydiflumetofen, pyraclostrobin, tebuconazole and trifloxystrobin were obtained as unformulated, technical-grade materials. Copper hydroxide and mancozeb was obtained as a formulated product marketed under the trademarks KOCIDE 3000 and MANZATE, respectively. Unformulated materials were first dissolved in acetone and then suspended at the desired concentration (in ppm) in acetone and purified water (50/50 mix by volume) containing 250 ppm of the surfactant Trem® 014 (polyhydric alcohol esters). Formulated materials were dispersed in sufficient water to give the desired concentration, and neither organic solvent nor surfactant was added to the suspension. The resulting test mixtures were then used in Test F. The tests were run on four individual plants and the results reported as the mean average of the four plants.
The presence of a synergistic effect between two active ingredients was established with the aid of the Colby equation (see Colby, S. R. “Calculating Synergistic and Antagonistic Responses of Herbicide Combinations”, Weeds, (1967), 15, 20-22):
Using the method of Colby, the presence of a synergistic interaction between two active ingredients is established by first calculating the predicted activity, p, of the mixture based on activities of the two components applied alone. If p is lower than the experimentally established effect, synergism has occurred. In the equation above, A is the fungicidal activity in percentage control of one component applied alone at rate x. The B term is the fungicidal activity in percentage control of the second component applied at rate y. The equation estimates p, the expected fungicidal activity of the mixture of A at rate x with B at rate y if their effects are strictly additive and no interaction has occurred.
The test mixture was sprayed to the point of run-off on soybean seedlings. The following day the seedlings were inoculated with a spore suspension of Phakopsora pachyrhizi (the causal agent of Asian soybean rust) and incubated in a saturated atmosphere at 22° C. for 24 h and then moved to a growth chamber at 22° C. for 8 days, after which time visual disease ratings were made.
Results for Test F are given in Tables B-1 through I-1 for Compound 32 and Tables B-2 through I-2 for Compound 64. Each table corresponds to a set of evaluations performed together at the same time. In each table, a rating of 100 indicates 100% disease control and a rating of 0 indicates no disease control (relative to the controls). Columns labeled “Obsd” indicate the average of results observed from test run on four individual plants. Columns labeled “Exp” indicate the expected value for each treatment mixture using the Colby equation.

For assay [2] the test system is unchanged. The assay is described as follows: Test A: preventive spray on soybean seedlings, visual disease rating (100 = 100% control; * 50 ppm, ** 10 ppm, *** 250 ppm). Conditions: 100 = 100% disease control. Put shortly:
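Preventive test: one day after spraying compound (acetone/water suspension, 250 ppm PEG400), seedlings received rust spore inoculum, 24 h in saturated air then 8 days in growth chamber, both at 22 °C. Disease control scored visually, 100 = complete, 0 = none, relative to untreated controls.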

Assay [3] concerns Puccinia recondita f. sp. tritici (the causal agent of wheat leaf rust). Kind of assay: Test B: preventive spray on wheat seedlings, disease rating (100 = 100% control; * 50 ppm, ** 10 ppm, *** 250 ppm). To be noted: 100 = 100% disease control. An outline of the steps: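 Preventive test: Puccinia recondita f. sp. tritici spores were inoculated one day after run-off spraying of wheat seedlings with test suspension (acetone/water 50/50, 250 ppm PEG400). After 24 h in saturated air and 6 days in a growth chamber, both at 20° C, control was scored 0–100 versus untreated plants.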

Where [4] appears, read: 10 ppm test suspension, soybean seedlings.
The mark [5] stands for this setting: 10 ppm test suspension, wheat seedlings.
The mark [6] stands for this setting: 10 ppm test suspension, 0 = no control.
Setting [7] is: 50 ppm test suspension, 0 = no control.

For the molecule `CC1CC(C)(C)c2c(F)ccc(NC(=O)c3cn(C)nc3C(F)F)c21` (stereo not shown) [fluindapyr], the Obsd disease control is 61% in assay [1] (fluindapyr 8.820 ppm alone, Table C-1); 61% in assay [1] (fluindapyr 8.820 ppm alone, Table C-2); 79% in assay [1] (fluindapyr 15.230 ppm alone, Table C-1); 79% in assay [1] (fluindapyr 15.230 ppm alone, Table C-2).
For `CON(C(=O)c1cn(C)nc1C(F)F)C(C)Cc1c(Cl)cc(Cl)cc1Cl` (stereo not shown) [pydiflumetofen], the Obsd disease control in assay [1] (pydiflumetofen 41.364 ppm alone, Table H-1) came to 49%; in assay [1] (pydiflumetofen 41.364 ppm alone, Table H-2), 49%; in assay [1] (pydiflumetofen 70.950 ppm alone, Table F-1), 0%; in assay [1] (pydiflumetofen 70.950 ppm alone, Table F-2) it was 0%; in assay [1] (pydiflumetofen 128.793 ppm alone, Table H-1), 36%; in assay [1] (pydiflumetofen 128.793 ppm alone, Table H-2), 36%. Also, the Obsd disease control in assay [1] (pydiflumetofen 135.850 ppm alone, Table F-1) amounted to 73%; in assay [1] (pydiflumetofen 135.850 ppm alone, Table F-2), 73%.
As to `Cn1cc(C(=O)Nc2ccc(F)cc2-c2ccc(Cl)c(Cl)c2)c(C(F)F)n1` [bixafen], the Obsd disease control in assay [1] (bixafen 11.327 ppm alone, Table C-1) worked out at 54%; in assay [1] (bixafen 11.327 ppm alone, Table C-2), 54%; in assay [1] (bixafen 19.525 ppm alone, Table C-1), 55%; in assay [1] (bixafen 19.525 ppm alone, Table C-2) it was 55%.
As usually defined, the pest or weed control is the degree to which the test organism was suppressed or injured, in per cent. Regarding `Fc1ccc([C@]2(Cn3cncn3)O[C@H]2c2ccccc2Cl)cc1` (racemic) [epoxiconazole], the pest or weed control at 46.795 ppm in assay [1] (Table F-1) and in assay [1] (Table F-2) was 23% in each case. For the same molecule, the pest or weed control at 89.631 ppm in assay [1] (Table F-1) and in assay [1] (Table F-2) was 70% in each case.
As to `N#Cc1c(Cl)c(Cl)c(Cl)c(C#N)c1Cl` [chlorothalonil], in assay [1] (Table G-1), the pest or weed control at 138.129 ppm amounted to 59% and the pest or weed control at 222.081 ppm was determined as 85%. In assay [1] (Table G-2), the pest or weed control at 138.129 ppm worked out at 59% and the pest or weed control at 222.081 ppm is 85%.
With `OC(Cn1cncn1)(c1ccc(F)cc1)c1ccccc1F` (stereo not shown) [flutriafol], the pest or weed control at 544.265 ppm in assay [1] (Table I-1) and in assay [1] (Table I-2) was 13% in each case. The pest or weed control at 1124.02 ppm in assay [1] (Table I-1) and in assay [1] (Table I-2) was 52% in each case.
With `CO/C=C(/C(=O)OC)c1ccccc1COc1cccc(C(F)(F)F)n1` [picoxystrobin], the Obsd disease control in assay [1] (picoxystrobin 20.596 ppm alone, Table B-1) came to 73%; in assay [1] (picoxystrobin 20.596 ppm alone, Table B-2), 73%; in assay [1] (picoxystrobin 33.865 ppm alone, Table B-1), 75%; in assay [1] (picoxystrobin 33.865 ppm alone, Table B-2), 75%.
Consider `CC(Cc1ccc(C(C)(C)C)cc1)CN1CCCCC1` (stereo not shown) [fenpropidin], for which the pest or weed control at 78.393 ppm in assay [1] (Table I-1) and in assay [1] (Table I-2) was 45% in each case. For the same molecule, the pest or weed control at 161.74 ppm in assay [1] (Table I-1) and in assay [1] (Table I-2) was 68% in each case.
Take `Cn1cc(C(=O)Nc2ccccc2-c2cc(F)c(F)c(F)c2)c(C(F)F)n1` [fluxapyroxad]: the Obsd disease control is given as 19% in assay [1] (fluxapyroxad 2.757 ppm alone, Table C-1); 19% in assay [1] (fluxapyroxad 2.757 ppm alone, Table C-2); 52% in assay [1] (fluxapyroxad 4.748 ppm alone, Table C-1); 52% in assay [1] (fluxapyroxad 4.748 ppm alone, Table C-2).
For the molecule `CC(Cc1ccc(C(C)(C)C)cc1)CN1C[C@@H](C)O[C@@H](C)C1` (stereo partly shown) [fenpropimorph], in assay [1] (Table D-1), the pest or weed control at 242.823 ppm is 33% and the pest or weed control at 458.587 ppm turned out to be 44%. Also, in assay [1] (Table D-2), the pest or weed control at 242.823 ppm stood at 33% and the pest or weed control at 458.587 ppm turned out to be 44%.
For `CNC(=O)/C(=N/OC)c1ccccc1Oc1ccccc1` [metominostrobin], in assay [1] (Table H-1), the pest or weed control at 29.673 ppm was 13% and the pest or weed control at 86.003 ppm stood at 37%. In assay [1] (Table H-2), the pest or weed control at 29.673 ppm was determined as 13% and the pest or weed control at 86.003 ppm turned out to be 37%.
Regarding `OC(Cc1ccccc1Cl)(Cn1nc[nH]c1=S)C1(Cl)CC1` (stereo not shown) [prothioconazole], in assay [1] (Table G-1), the pest or weed control at 10.165 ppm turned out to be 7% and the pest or weed control at 16.339 ppm is 65%. Besides, in assay [1] (Table G-2), the pest or weed control at 10.165 ppm turned out to be 7% and the pest or weed control at 16.339 ppm is 65%.
In the case of `CCO/C(=C\Oc1ccc(Cn2nc(C)cc2C)cc1)C(F)(F)F` [compound 152], in assay [2] (setting [4]), the “Test A disease control rating” value was determined as 0%. The “Test B disease control rating” value in assay [3] (setting [5]) is 0%.
For the molecule `CCO/C(=C\Oc1ccc(Cn2ccc(C(=O)OCC3CCC3)n2)cc1)C(F)(F)F` [compound 361], the “Test A disease control rating” value in assay [2] (setting [6]) is recorded as 100%. The “Test B disease control rating” value in assay [3] (setting [6]) came out at 0%.
Consider `CCCC(=O)N(Cc1ccc(OCC2(C(F)(F)F)OCCO2)cc1)OC` [compound 237], for which the “Test A disease control rating” value in assay [2] (setting [4]) came out at 97%. For the same molecule, the “Test B disease control rating” value in assay [3] (setting [5]) was 0%.
As to `CCO/C(=C\Oc1ccc(CNC(=O)CC)cc1)C(F)(F)F` [compound 150], the “Test A disease control rating” value in assay [2] (setting [4]) amounted to 33%. Further, the “Test B disease control rating” value in assay [3] (setting [5]) came to 0%.
With `CCO/C(=C\Oc1ccc(Cn2ccnc2)cc1)C(F)(F)F` [compound 156], the “Test A disease control rating” value in assay [2] (setting [4]) is recorded as 0%. Moreover, in assay [3] (setting [5]), the “Test B disease control rating” value came out at 0%.
For `CCOC(=COc1ccc(Cc2ccnc(SC)n2)cc1)C(F)(F)F` [compound 308], the “Test A disease control rating” value in assay [2] (setting [7]) came out at 25%. In addition, in assay [3] (setting [7]), the “Test B disease control rating” value turned out to be 0%.
As for `CCCNC(=O)c1ccc(O/C=C(\OCC)C(F)(F)F)cc1` [compound 104], the “Test A disease control rating” value in assay [2] (setting [4]) was 0%. The “Test B disease control rating” value in assay [3] (setting [5]) stood at 80%.
In the case of `CCOC(=O)c1cnn(CCCc2cccc(OCC(O)(O)C(F)(F)F)c2)c1` [compound 417], the pest or weed control at 10 ppm in assay [2] (Phakopsora pachyrhizi, 10 ppm test suspension, 0 = no control) was 0%; in assay [3] (Puccinia recondita, 10 ppm test suspension, 0 = no control), 0%.
On to `CCO/C(=C\Oc1ccc(CN2OCC(C)(C)C2=O)cc1)C(F)(F)F` [compound 92], for which the “Test A disease control rating” value in assay [2] (setting [4]) turned out to be 0%. In addition, the “Test B disease control rating” value in assay [3] (setting [5]) is listed as 0%.
Take `CCOC(=COc1ccc(Cn2ccc(C)n2)cc1)C(F)(F)F` [compound 158]: the “Test A disease control rating” value in assay [2] (setting [4]) was 0%. Also, the “Test B disease control rating” value in assay [3] (setting [5]) came to 0%.
Turning to `CCOC(=O)c1ccn(Cc2ccc(OCC3(C(F)(F)F)OCCO3)cc2)n1` [compound 232], the “Test A disease control rating” value in assay [2] (setting [4]) worked out at 98%. The “Test B disease control rating” value in assay [3] (setting [5]) is given as 0%.
In the case of `CCOC(=COc1ccc(CN2CCC(C#N)CC2)cc1)C(F)(F)F` [compound 311], the “Test A disease control rating” value in assay [2] (setting [6]) came to 0%. Also, in assay [3] (setting [6]), the “Test B disease control rating” value was determined as 0%.
